Measurements from US10046052B2, “Method and formulation for cold treatment in adults and children with increased safety” (priority 2010, dated 2018).
Read-outs that look alike come from different tables or passages of the source.

System: patients with cold, cough and other symptoms of respiratory infection (Upper Respiratory Infection, URI/cold)
Excerpt: Representative Samples of Clinical Cases of Patients of Varying Ages Treated by a Doctor, with Non or Minimally Sedating Antihistamines for Cold, Cough and Other Symptoms of Respiratory Infection:

CC(C)(C(=O)O)c1ccc(C(O)CCCN2CCC(C(O)(c3ccccc3)c3ccccc3)CC2)cc1 (stereo not drawn) [Fexofenadine]
relief of URI symptoms (Case 4: URI/cold, Fexofenadine 180 mg QD with Triamcinolone Nasal Spray): rapid relief of URI symptoms | relief of Pharyngitis and Bronchitis symptoms (Case 10: Pharyngitis, Asthma, COPD, Fexofenadine 180 mg QD, Amoxicillin Clavulanate, Prednisone): rapid relief of Pharyngitis and Bronchitis symptoms | relief of URI and Sinusitis symptoms (Case 11: URI/cold, rule out Sinusitis, Fexofenadine 60 mg BID, Amoxicillin Clavulanate): rapid relief of URI and Sinusitis symptoms | relief of URI symptoms (Case 12: same patient as Case 11, Allergic Rhinitis/URI/cold, Fexofenadine 60 mg BID): rapid relief of URI symptoms | relief of URI symptoms (Case 13: same patient as Cases 11 and 12, URI/cold, Fexofenadine 60 mg BID): rapid relief of URI symptoms

O=C(O)COCCN1CCN([C@H](c2ccccc2)c2ccc(Cl)cc2)CC1 [Levocetirizine]
relief of URI symptoms (Case 5: child, URI/cold, Levocetirizine 2.5 mg at bedtime, Carbinoxamine with Dextromethorphan discontinued): rapid relief of URI symptoms | relief of cough (Case 6: same patient as Case 5, URI/cold, resumed Levocetirizine 2.5 mg at bedtime): rapid relief of cough | relief of URI symptoms (Case 7: same patient as Case 6, Pharyngitis, URI/cold, Levocetirizine 2.5 mg at bedtime, using Mometasone Nasal Spray, asthma inhaler, Montelukast): rapid relief of URI symptoms

O=C(O)COCCN1CCN(C(c2ccccc2)c2ccc(Cl)cc2)CC1 (stereo not drawn) [Cetirizine]
relief of URI symptoms (Case 1: URI/cold, Cetirizine 10 mg QHS with Triamcinolone Nasal Spray): rapid relief of URI symptoms | relief of URI symptoms (Case 2: same patient as Case 1, URI/cold and Bronchitis, Cetirizine 10 mg QHS, already taking Triamcinolone Nasal Spray): rapid relief of URI symptoms | relief of URI symptoms (Case 3: same patient as Case 1, URI/cold, Cetirizine 10 mg QHS): rapid relief of URI symptoms | relief of URI symptoms (Case 8: URI/cold/Allergic Rhinitis, Cetirizine 10 mg QHS): rapid relief of URI symptoms | relief of URI and Bronchitis symptoms (Case 9: same patient as Case 8, URI/cold/Bronchitis, Allergic Rhinitis, Cetirizine 10 mg QHS and Amoxicillin Clavulanate): rapid relief of URI and Bronchitis symptoms | relief of URI symptoms (Case 14: URI, Cetirizine Liquid 2.5 mg QHS): rapid relief of URI symptoms

CCOC(=O)N1CCC(=C2c3ccc(Cl)cc3CCc3cccnc32)CC1 [Loratidine]
relief of URI symptoms (Case 15: URI/Pharyngitis, Loratidine 10 mg QD, Azithromycin prescribed by Pediatrician): rapid relief of URI symptoms
